The text below walks through data of US4704407A, “Soluble dobutamine salts” (Eli Lilly and Company, priority 1986, dated 1987).

Data set [1] in a line: Storage stability of concentrate solutions. It is filed as physicochemical. The following applies: at 5° C., N2 atmosphere, with sodium bisulfite, pH=3.65. The text has this: In a repeat with (-) tartaric acid, 58.6 g of dobutamine hydrochloride in deaerated water were neutralized with dilute aqueous sodium hydroxide in the presence of a peroxide scavenger under N2; pH=11.09. The precipitate of dobutamine base was washed with the […] and dried. The filter cake was dissolvd in 2 l of deaerated water followed by 26.1 g of (-)-tartaric acid and 0.8 g of sodium bisulfite; pH=3.65. The solution was filtered and then stored at […], always under an N2 atmosphere. Such stored concentrate solutions are stable for 12 months or more at 5° C.

The conditions of data set [2]: cited from earlier work.
A short description of data set [3]: Solubility of dobutamine salts (as dobutamine base, in water). It counts as physicochemical. How it is done:
8.3 Millimoles of dobutamine free base and 8.7 millimoles of one of each of the following acids: glycolic, (+)-tartaric, gluconic, lactobionic and glucoheptonic, were mixed under an N2 atmosphere were an amount of 0.035 g aqueous sodium bisulfite dissolved in water for injection such that the final volume was […]; i.e., 100 mg/ml of dobutamine base. If required, the salt-forming mixture was warmed to expedite solution of dobutamine base. The solid salt can be obtained from the solution, if desired, by evaporation of the solvent.
The solubilities of each of the dobutamine salts thus prepared was in excess of 100 mg/ml. By contrast, a saturated solution of dobutamine hydrochloride provides about 25 mg/ml of dobutamine.
Furthermore, with any of the acids named, stereoisomers thereof can also be used rather than a racemate. Dobutamine content of all solutions is monitored with UV.

Where [4] appears, read: U.S. Pat. No. 3,932,461 (Suh I).
Where [5] appears, read: ascribed to dobutamine, U.S. Pat. No. 3,932,461.

Counter-ions that a name gives are not always drawn.

Regarding `CC(CCc1ccc(O)cc1)NCCc1ccc(O)c(O)c1` (stereo not drawn) [dobutamine salt of (-)-tartaric acid], the “stability of stored concentrate solutions” value in data set [1] is not below 12 months.
Take `CC(CCc1ccc2c(c1)OCO2)NCCc1ccc(O)c(O)c1` (centres unmarked) [N-[3-(3,4-methylenedioxyphenyl)-1-methylpropyl 2-(3,4-dihydroxyphenyl)ethylamine]: in data set [2] (setting [4]), the cardiotonic properties entry is on record as “cardiotonic properties similar to those ascribed to dobutamine” and the “depressant or analgesic activity” value is recorded as “depressants or analgesics”.
With `CC(CCc1ccc(O)cc1)NCCc1ccc(O)c(O)c1` (racemic) [dobutamine salt of (±)-tartaric acid], the “solubility of the dobutamine salt (in words)” value in data set [3] (salts with further tartaric acid isomers) is “high solubility”.
On to `CC(CCc1ccc(O)cc1)NCCc1ccc(O)c(O)c1` (centres unmarked) [dobutamine hydrochloride], for which the solubility in data set [3] (water, saturated solution, mg/ml of dobutamine, read-out: dobutamine provided by a saturated solution) was approximately 25 mg/mL.
With `CC(CCc1ccc(O)cc1)NCCc1ccc(O)c(O)c1` (racemic) [dobutamine, (±)-N-[3-(4-hydroxyphenyl)-1-methylpropyl]2-(3,4-dihydroxyphenyl) ethylamine], the “solubility in water (in words)” value in data set [3] (dobutamine base separates from the alkaline medium) is listed as “water-insoluble”. Further, in data set [2] (setting [5]), the contractile force entry was “increased contractile force” and the “effect on blood pressure or heart rate” value is given as “without significant effect on blood pressure or heart rate”.
